Data taken from patent US7919460B2, “Method for prophylaxis of reflex sympathetic dystrophy after stroke” (Asahi Kasei Pharma Corporation, priority 2006, dated 2011).

Assays:
[1] = tested on: RSD triggered and developed by a trauma or surgical invasion; conditions: clinical, literature; cited from earlier work
[2] = tested on: patients with hemiplegia attributed to cerebrovascular disease (stroke) who developed RSD (shoulder-hand syndrome); test: Test of treatment of post-stroke RSD (therapeutic administration after onset); type: in vivo, humans; conditions: therapeutic administration group (11 patients), at completion of administration
Protocol: EL was administered after the onset of RSD (shoulder-hand syndrome) in the same use and dose as in Example 1 to 11 patients with hemiplegia attributed to cerebrovascular disease (stroke) at Brunnstrom stage III or lower in either the upper limb or a finger on admission, who developed RSD (shoulder-hand syndrome). These patients were classified into a therapeutic administration group. On the other hand, the EL administration group of Example 1 was compared as a control (preventive administration group) with the therapeutic administration group.

[3] = tested on: patients with hemiplegia attributed to cerebrovascular disease (stroke), onset of RSD (shoulder-hand syndrome); test: Test of prevention of onset of post-stroke RSD; type: in vivo, humans
Excerpt: Test subjects were 33 patients with hemiplegia attributed to cerebrovascular disease (stroke) at Brunnstrom stage III or lower in either the upper limb or a finger on admission. Patients already developing RSD (shoulder-hand syndrome) on admission and patients with pain in the shoulder joint or swollen paralyzed limbs were excluded from the test. […] On the other hand, 21 test subjects were classified into a rehabilitation alone group (control group) and compared with the EL administration group. Physical therapy and therapeutic exercise, occupational therapy, and the management of the paralyzed limbs were performed thoroughly in all the cases. […] EL administration was initiated 11 to 59 days after an attack of stroke (25.8 days on average) and continued until 5 months after the attack of stroke. The same observation period was applied to the control group. The test subjects were diagnosed as developing RSD (shoulder-hand syndrome) if they had diffuse pain not localized to the shoulder joint, edema involving skin color changes, skin temperature abnormalities, and range of motion limitations, and the practice of their rehabilitation was restricted. These criteria agreed to Veldmnan's diagnostic criteria or diagnostic criteria for CRPS-type 1 provided by the International Association for the Study of Pain.
Activities of daily living (ADL) were evaluated on the basis of the Barthel Index (BI) and the range of motion (ROM) of shoulder joint. The movable range of shoulder joint (also referred to as “shoulder ROM”) was regarded as restricted (Shoulder-ROM-restrictions were present.) if either abduction or flexion was restricted in measurement. The test subjects were also examined for sensory impairment, aphasia, and unilateral spatial neglect on admission.
Statistical analysis was conducted with unpaired t-test, Fisher's exact test or Wilcoxon test, and 5% or lower significance level was regarded as being significant.

[4] = in vivo; cited from earlier work
[5] = EL preventive administration group (12 cases), 20 units i.m. once a week until 5 months after stroke

In the case of O=C1O[C@H]([C@@H](O)CO)C(O)=C1O [vitamin C], the “Preventive effect on the initial onset of RSD after trauma or surgical invasion” value [1] is listed as “preventive effect”.
In the case of “1-butyric acid-7-(L-2-aminobutyric acid)-26-L-aspartic acid-27-L-valine-29-L-alanine-calcitonin [elcatonin]”, the “No RSD, the number of persons” value [2] was 0, the “Incidence converted to incidence in all patients with hemiplegia attributed to stroke in the facility” value ([3]; EL administration group) was “approximately 1.3%” and the “Incidence of RSD” value ([3]; EL administration initiated within 48 days after stroke) was 0%. For the same compound, the “The number of test subjects developing post-stroke RSD: Developed” value [3, 5] was 1, the “The number of test subjects developing post-stroke RSD: Not developed” value [3, 5] was 11 and the “Incidence of RSD (cases developed RSD)” value ([3]; EL preventive administration group, 12 cases) was 8.3%. The “Incidence of RSD until discharge versus unadministered patient group” value ([3]; repetitive administration to stroke hemiplegia patients without RSD on admission) was “suppressed significantly and remarkably”.
In the case of salmon calcitonin, the “Dose of oral administration agent relative to dose of drip infusion in vein” value [4] is given as “approximately 60 times”.
